For the experiment, the target named is T1, GPR3 (Homo sapiens, UniProt P46089).
T1 construct: host or cells: HEK293A, transient
The experiment can be described thus: FRET/BRET cAMP biosensor in HEK293A cells cotransfected with GPR3. Format: cell-based. The settings on record: for GPR3-dependent change in cAMP: cAMP biosensor, pcDNA vs GPR3 transfected HEK293A. An excerpt:
With the first GPR3 ligands identified by using a conformational readout in our hands, we next wanted to understand whether these compounds could have been detected in a cAMP-based assay, which has been used extensively in the past to screen for GPR3 ligands. We therefore tested rac-VH1/52, VH2/93 and VH3/115 in cells expressing a cAMP biosensor.
3 Effect of rac-VH1/52, VH2/93 and VH3/115 on GPR3-dependent cAMP production. (a–c) Vehicle-corrected BRET changes induced by rac-VH1/52 (a), VH2/93 (b) or VH3/115 (c) in HEK293A cells transiently transfected with a cAMP BRET sensor along with pcDNA or GPR3. […] Statistical significance was tested using Two-Way ANOVA followed by Sidak multiple comparison (*: […]; **: p < 0.01). […]
Plasmids and molecular cloning
The H187-EPAC-FRET sensor7 was kindly provided by K. Jalink (The Netherlands Cancer Institute, Amsterdam, The Nether-lands). The BRET-based cAMP sensor CAMYEL8 was kindly provided by Laura Humphrys (University of Regensburg, Regens-burg, Germany). Plasmids encoding the conformational biosensors α2AAR- and β2AR-HaloTag/Nluc9 and the Gs heterotrimer dissociation sensor10 were previously described. The expression plasmid encoding N-terminally HA-tagged GPR3 (cat. no.
#GPR003TN00) on a pcDNA3.1+ vector was obtained from the cDNA resource center (cdna.org). The Nluc and HaloTag in-serts were amplified with overhanging restriction sites from β2AAR- HaloTag/Nluc and ligated to the full-length C-terminus or inserted into icl3 of GPR3, respectively, to obtain the conformational biosensor GPR3-HaloTag/Nluc. Point mutants of GPR3-HaloTag/Nluc were generated using the GeneArt Site-directed Mutagenesis System (Thermo Fisher Scientific). All con-structs were verified by sequencing (Eurofins genomics).
Poly-D-lysine, polyethylenimin hydrochloride (linear; average Mn 20 000; PEI) , […], LPA , forskolin, NECA and bovine serum albumin (BSA) were obtained from Sigma Aldrich (Merck KGaA). Dulbecco's Modified Eagle's Medium (DMEM), Dul-becco's Phosphate -Buffered Saline (DPBS) and G -418 (Geneticin) were from Gibco. Diphenyleneiodonium chloride (DPI) and AF64394 were purchased from Tocris (Bio -Techne). The TMB (3, 3', 5, 5' tetramethyl benzidine) substrate reagent set was from BioLegend. The Nluc substrate furimazine and the red fluorescen t HaloTag dye, HaloTag® NanoBRET® 618 Ligand, were obtained in a single kit from Promega (cat. no. N1662). D-luciferin-sodium and the S1PR1 agonist III were from Med-ChemExpress. The Rluc substrate coelenterazine 400a was from NanoLight Technology (cat. no. 340 -10). White -wall, white - bottomed 96 -well, black -wall, black bottomed and transparent 96 -well microtiter plates were from Brand.
HEK293A cells were used for transient transfection and grown in Dulbecco’s modified Eagle’s medium (DMEM) supplemented with 2 mM glutamine, 10 % fetal calf serum, streptomycin (0.1 mg/mL), and penicillin (100 U/mL) at 37 °C with 5 % CO2. […]
Transient transfection and plating
Resuspended cells (300,000 cells/mL) were transfected in suspension with a total of 1 μg DNA/mL suspension using PEI (1 mg/ml stock solution; 3 μL PEI solution per μg DNA). For cAMP experiments with FRET- or BRET-based sensors, resuspended cells were transfected with 500 ng pcDNA, wildtype GPR3 or GPR3-HaloTag/Nluc constructs along with 500 ng of the FRET-or BRET-based cAMP sensor per mL cell suspension. For cAMP experiments with GloSensor™ 22F, resuspended cells were transfected with 250 ng pcDNA or GPCR along with 500 ng of a 1:1 mix of pcDNA with the GloSensor™ 22F per mL cell sus-pension. Cells mixed with the transfection reagents were seeded onto poly-D-lysine–precoated, 96-well plates and grown for 48 h at 37 °C with 5 % CO2. Stable α2AAR-, β2AR- or GPR3-HaloTag/Nluc expressing cells were seeded 24 h before the experi-ment at a density of 800,000 cells/mL into white 96-well plates. To monitor changes in BRET in with conformational GPCR […]
In general terms: Bioluminescence resonance energy transfer reports proximity on the nanometre scale.

Setting [1] is: 30 μM pretreatment, cells coexpressing GPR3.

The values below come from paper PMC13195669, “GPR3 Ligands Discovered through Combined Virtual and Conformational Biosensor-Based Screening” (Journal of the American Chemical Society, 2026).

T1 sequence (P46089 whole entry): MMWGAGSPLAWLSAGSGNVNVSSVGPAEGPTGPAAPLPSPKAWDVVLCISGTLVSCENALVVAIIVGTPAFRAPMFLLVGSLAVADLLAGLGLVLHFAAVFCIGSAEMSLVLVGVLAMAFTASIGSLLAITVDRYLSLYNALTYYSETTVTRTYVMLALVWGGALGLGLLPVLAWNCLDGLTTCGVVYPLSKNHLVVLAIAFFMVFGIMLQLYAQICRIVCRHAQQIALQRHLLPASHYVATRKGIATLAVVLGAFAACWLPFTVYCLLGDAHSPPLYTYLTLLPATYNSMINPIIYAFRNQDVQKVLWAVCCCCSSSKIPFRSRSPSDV

On to `N=c1n(Cc2ccccc2)c2ccccc2n1CC1CC1` [compound 33], for which, under setting [1], the “effect of pretreatment on AF64394 response in cAMP assay” value was “no effect on the effect of AF64394” and the “effect of pretreatment on DPI-induced cAMP generation” value was “inhibited DPI-induced cAMP generation”.
As to `N=c1n(Cc2ccccc2)c2ccccc2n1CC(O)COc1ccc(Cl)cc1` (stereo not shown) [compound 52], the “GPR3-dependent change in cAMP” value is listed as “induced GPR3-dependent changes in cAMP concentrations”.
In the case of `Cc1ccc(NC(=O)CN2CCN(C(=O)CCc3ccc(Cl)cc3)CC2)cc1` [compound 115], the “GPR3-dependent change in cAMP” value was “modulates the conformation of GPR3 but not GPR3-dependent cAMP production”.
